Data on 13 molecules can be found in the NIST ThermoML archive (doi:10.1021/acs.jced.8b00348).

Numbers after ± are expanded uncertainties.

For data set [1] the following is noted: Liquid, Ebulliometric method (Recirculating still).
The nature of data set [2]: refractive index (Na D-line) (dimensionless). To be noted: 293.15 K; 93.13 kPa; Liquid; Standard Abbe refractometry.
A short description of data set [3]: refractive index (Na D-line) (dimensionless); xn = mol fraction of the nth substance listed. The following applies: 293.15 K, 93.13 kPa, Liquid, Standard Abbe refractometry.

For `Cc1ccccc1C` [1,2-dimethylbenzene], in data set [1] (414.41 K), the vapor or sublimation pressure (in general, the pressure of vapour in equilibrium with the condensed phase) is reported as 93.13 ± 0.96 kPa. Further, the refractive index (usually the speed of light in vacuum divided by its phase velocity in the sample) in data set [2] was found to be 1.5048 ± 0.0004.

Take `Cc1ccccc1C` [1,2-dimethylbenzene] + COc1ccccc1: the refractive index in data set [3] (x1 = 1) was 1.5048 ± 0.0004.

In the case of `Cc1cccc(C)c1` [1,3-dimethylbenzene], the “vapor or sublimation pressure” value in data set [1] (409.13 K) was 93.13 ± 0.96 kPa. For the same molecule, in data set [2], the refractive index was determined as 1.497 ± 0.0004.

For the molecule `Cc1cccc(C)c1` [1,3-dimethylbenzene] + COc1ccccc1, the refractive index in data set [3] (x1 = 1) is on record as 1.497 ± 0.0004.

On to `Cc1ccc(C)cc1` [1,4-dimethylbenzene], for which, in data set [1] (408.37 K), the “vapor or sublimation pressure” value was 93.13 ± 0.96 kPa. In data set [2], the refractive index is on record as 1.4956 ± 0.0004.

Take `Cc1ccc(C)cc1` [1,4-dimethylbenzene] + COc1ccccc1: the refractive index in data set [3] (x1 = 1) turned out to be 1.4956 ± 0.0004.

For the molecule `COc1ccccc1` [anisole], the “vapor or sublimation pressure” value in data set [1] (423.38 K) is 93.13 ± 0.96 kPa. Also, in data set [2], the refractive index worked out at 1.517 ± 0.0004.

Consider `COc1ccccc1` [anisole] + CCc1ccccc1, for which the refractive index in data set [3] (x2 = 0) is 1.517 ± 0.0004; in data set [3] (x2 = 0.0762) it was 1.5152 ± 0.0004; in data set [3] (x2 = 0.1494), 1.5136 ± 0.0004; in data set [3] (x2 = 0.1767), 1.513 ± 0.0004; in data set [3] (x2 = 0.2118), 1.5122 ± 0.0004; in data set [3] (x2 = 0.2442), 1.5115 ± 0.0004. Besides, the refractive index worked out at 1.511 ± 0.0004 in data set [3] (x2 = 0.2691); 1.5093 ± 0.0004 in data set [3] (x2 = 0.3432); 1.508 ± 0.0004 in data set [3] (x2 = 0.4041); 1.5077 ± 0.0004 in data set [3] (x2 = 0.412); 1.5066 ± 0.0004 in data set [3] (x2 = 0.4651); 1.5055 ± 0.0004 in data set [3] (x2 = 0.5183). The refractive index came out at 1.5033 ± 0.0004 in data set [3] (x2 = 0.6208); 1.5019 ± 0.0004 in data set [3] (x2 = 0.6885); 1.4998 ± 0.0004 in data set [3] (x2 = 0.7927); 1.4975 ± 0.0004 in data set [3] (x2 = 0.9056); 1.4965 ± 0.0004 in data set [3] (x2 = 0.9514).

With `COc1ccccc1` [anisole] + Cc1ccc(C)cc1, the refractive index in data set [3] (x2 = 0) was 1.517 ± 0.0004; in data set [3] (x2 = 0.0499), 1.5157 ± 0.0004; in data set [3] (x2 = 0.1387), 1.5138 ± 0.0004; in data set [3] (x2 = 0.1684) it was 1.5131 ± 0.0004; in data set [3] (x2 = 0.2124), 1.5122 ± 0.0004; in data set [3] (x2 = 0.2656), 1.511 ± 0.0004. The refractive index in data set [3] (x2 = 0.3055) is reported as 1.5101 ± 0.0004; in data set [3] (x2 = 0.4128), 1.5078 ± 0.0004; in data set [3] (x2 = 0.4494) it was 1.507 ± 0.0004; in data set [3] (x2 = 0.4497), 1.507 ± 0.0004; in data set [3] (x2 = 0.5122), 1.5057 ± 0.0004; in data set [3] (x2 = 0.5626) it was 1.5046 ± 0.0004. Moreover, the refractive index was found to be 1.5036 ± 0.0004 in data set [3] (x2 = 0.6095), 1.4995 ± 0.0004 in data set [3] (x2 = 0.8055), 1.4978 ± 0.0004 in data set [3] (x2 = 0.8904) and 1.4964 ± 0.0004 in data set [3] (x2 = 0.9613).

With `COc1ccccc1` [anisole] + Cc1cccc(C)c1, the refractive index was found to be 1.517 ± 0.0004 in data set [3] (x2 = 0); 1.5154 ± 0.0004 in data set [3] (x2 = 0.0756); 1.5131 ± 0.0004 in data set [3] (x2 = 0.1836); 1.5125 ± 0.0004 in data set [3] (x2 = 0.2143); 1.5113 ± 0.0004 in data set [3] (x2 = 0.2716); 1.5104 ± 0.0004 in data set [3] (x2 = 0.3152). For the same molecule, the refractive index in data set [3] (x2 = 0.4196) stood at 1.5082 ± 0.0004; in data set [3] (x2 = 0.4711) it was 1.5072 ± 0.0004; in data set [3] (x2 = 0.5086), 1.5064 ± 0.0004; in data set [3] (x2 = 0.6083), 1.5045 ± 0.0004; in data set [3] (x2 = 0.6746) it was 1.5031 ± 0.0004; in data set [3] (x2 = 0.7383) it was 1.5019 ± 0.0004. Also, the refractive index is 1.5002 ± 0.0004 in data set [3] (x2 = 0.8189), 1.4997 ± 0.0004 in data set [3] (x2 = 0.8552) and 1.4982 ± 0.0004 in data set [3] (x2 = 0.9339).

Turning to `COc1ccccc1` [anisole] + Cc1ccccc1C, the refractive index amounted to 1.517 ± 0.0004 in data set [3] (x2 = 0); 1.5159 ± 0.0004 in data set [3] (x2 = 0.0825); 1.5156 ± 0.0004 in data set [3] (x2 = 0.1066); 1.5151 ± 0.0004 in data set [3] (x2 = 0.1439); 1.5144 ± 0.0004 in data set [3] (x2 = 0.1945); 1.5131 ± 0.0004 in data set [3] (x2 = 0.2976). In addition, the refractive index in data set [3] (x2 = 0.3812) stood at 1.512 ± 0.0004; in data set [3] (x2 = 0.4796), 1.5109 ± 0.0004; in data set [3] (x2 = 0.617), 1.5092 ± 0.0004; in data set [3] (x2 = 0.6785), 1.5084 ± 0.0004; in data set [3] (x2 = 0.7801), 1.5072 ± 0.0004; in data set [3] (x2 = 0.9159) it was 1.5057 ± 0.0004. Also, in data set [3] (x2 = 0.9329), the refractive index is recorded as 1.5056 ± 0.0004.

With `CCc1ccccc1` [ethylbenzene], the “vapor or sublimation pressure” value in data set [1] (406.23 K) worked out at 93.13 ± 0.96 kPa. Further, in data set [2], the refractive index is listed as 1.4955 ± 0.0004.

As to `CCc1ccccc1` [ethylbenzene] + COc1ccccc1, the refractive index in data set [3] (x1 = 1) worked out at 1.4955 ± 0.0004.
